The results in this text go back to ChEMBL document CHEMBL1268826, “Discovery of the inhibitors of tumor necrosis factor alpha with structure-based virtual screening” (Bioorg Med Chem Lett, 2010).

SMILES strings stand for the structures.

This assay deals with T1, Tumor necrosis factor (Mus musculus) (UniProt P06804).
T1 sequence (whole entry): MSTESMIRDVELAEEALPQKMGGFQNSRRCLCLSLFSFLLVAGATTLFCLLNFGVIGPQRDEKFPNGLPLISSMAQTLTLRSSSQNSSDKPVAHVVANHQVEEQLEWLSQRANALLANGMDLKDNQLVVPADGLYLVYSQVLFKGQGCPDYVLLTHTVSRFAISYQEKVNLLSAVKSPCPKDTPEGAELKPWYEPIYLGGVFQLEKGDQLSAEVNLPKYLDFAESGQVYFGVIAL
Description: Inhibition of TNFalpha in LPS-stimulated mouse RAW264.7 cells at 10 uM after 2 hrs treated after 14 hrs of LPS challenge by FACS analysis. The format is cell-based. In general terms: In flow cytometry, cells or beads pass a laser one at a time.

For the compound `O=C1NC(=O)N(c2ccc3c(c2)OCO3)C(=O)/C1=C\c1cn(Cc2ccccc2Cl)c2ccccc12`, the inhibition (commonly the change of the read-out against control, counted positive when it falls) was found to be 54.6%.
Take `O=C1NC(=O)N(c2ccccc2)C(=O)/C1=C\c1ccccc1OCc1ccccc1Cl`: the inhibition is 47.9%.
Turning to `NC(=O)c1cc(-c2csc(C3COc4ccccc4O3)n2)ccc1OCc1ccccc1` (stereo unspecified), the inhibition worked out at 52.6%.
The value for `c1ccc(-n2ncc3c(NCCN4CCCCC4)ncnc32)cc1` was 45.8%; that for `O=c1cc(-c2ccccc2)oc2cc(O)c(O)c(O)c12` was 71.3%.
Consider `Cc1cccc(N2C(=O)NC(=O)/C(=C/c3ccc(-c4ccc(C(=O)O)c(Cl)c4)o3)C2=O)c1`, for which the inhibition is 64%.
